Laboratory results taken from ChEMBL document CHEMBL1240489, “Discovery of N-{1-[3-(3-oxo-2,3-dihydrobenzo[1,4]oxazin-4-yl)propyl]piperidin-4-yl}-2-phenylacetamide (Lu AE51090): an allosteric muscarinic M1 receptor agonist with unprecedented selectivity and procognitive potential” (J Med Chem, 2010).

Tests used:
[1] = molecular target: T1, Muscarinic acetylcholine receptor M1 (Homo sapiens) (UniProt P11229); assay: Agonist activity at human muscarinic M1 receptor expressed in CHO-K1 cells assessed as increase of acetylcholine-induced calcium flux by FLIPR assay relative to acetylcholine; type: functional, cell-based
T1 sequence (whole entry): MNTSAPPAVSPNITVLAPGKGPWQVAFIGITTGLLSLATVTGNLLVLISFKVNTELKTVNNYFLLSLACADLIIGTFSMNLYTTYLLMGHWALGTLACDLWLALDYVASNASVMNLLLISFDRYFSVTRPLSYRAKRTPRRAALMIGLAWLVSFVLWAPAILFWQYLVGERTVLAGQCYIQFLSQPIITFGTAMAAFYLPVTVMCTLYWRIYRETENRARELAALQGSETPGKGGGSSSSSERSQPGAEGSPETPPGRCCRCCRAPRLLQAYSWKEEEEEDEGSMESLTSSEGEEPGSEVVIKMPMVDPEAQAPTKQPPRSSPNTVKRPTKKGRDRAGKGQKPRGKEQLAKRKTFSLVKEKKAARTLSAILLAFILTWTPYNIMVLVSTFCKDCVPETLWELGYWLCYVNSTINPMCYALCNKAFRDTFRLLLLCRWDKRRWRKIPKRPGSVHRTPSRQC

[2] = molecular target: T2, Muscarinic acetylcholine receptor M1 (Homo sapiens, UniProt P11229)
T2 sequence (P11229 whole entry): T1 sequence (whole entry)

[3] = molecular target: T1, Muscarinic acetylcholine receptor M1 (Homo sapiens); assay: Agonist activity at human muscarinic M1 receptor expressed in CHO-K1 cells assessed as increase of acetylcholine-induced calcium flux at 10 uM by FLIPR assay relative to acetylcholine; type: functional, cell-based
[4] = molecular target: Muscarinic acetylcholine receptor M1 (Homo sapiens, UniProt P11229, Y381A)
Sequence of Muscarinic acetylcholine receptor M1 (Homo sapiens, UniProt P11229, Y381A) (P11229 whole entry Y381A): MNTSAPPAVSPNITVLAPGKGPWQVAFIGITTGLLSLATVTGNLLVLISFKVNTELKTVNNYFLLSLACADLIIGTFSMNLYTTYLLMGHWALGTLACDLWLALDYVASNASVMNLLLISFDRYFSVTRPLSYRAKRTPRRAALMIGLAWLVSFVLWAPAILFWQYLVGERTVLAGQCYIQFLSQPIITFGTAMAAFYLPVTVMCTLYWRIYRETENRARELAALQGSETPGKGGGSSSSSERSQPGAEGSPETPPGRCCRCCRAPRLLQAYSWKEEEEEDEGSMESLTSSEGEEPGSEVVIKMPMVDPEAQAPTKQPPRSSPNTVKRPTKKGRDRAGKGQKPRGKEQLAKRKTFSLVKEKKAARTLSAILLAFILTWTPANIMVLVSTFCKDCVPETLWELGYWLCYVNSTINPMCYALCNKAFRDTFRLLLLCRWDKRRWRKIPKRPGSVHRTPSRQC

[5] = molecular target: T3, Muscarinic acetylcholine receptor M5 (Homo sapiens, UniProt P08912); assay: biochemical
T3 sequence (P08912 whole entry): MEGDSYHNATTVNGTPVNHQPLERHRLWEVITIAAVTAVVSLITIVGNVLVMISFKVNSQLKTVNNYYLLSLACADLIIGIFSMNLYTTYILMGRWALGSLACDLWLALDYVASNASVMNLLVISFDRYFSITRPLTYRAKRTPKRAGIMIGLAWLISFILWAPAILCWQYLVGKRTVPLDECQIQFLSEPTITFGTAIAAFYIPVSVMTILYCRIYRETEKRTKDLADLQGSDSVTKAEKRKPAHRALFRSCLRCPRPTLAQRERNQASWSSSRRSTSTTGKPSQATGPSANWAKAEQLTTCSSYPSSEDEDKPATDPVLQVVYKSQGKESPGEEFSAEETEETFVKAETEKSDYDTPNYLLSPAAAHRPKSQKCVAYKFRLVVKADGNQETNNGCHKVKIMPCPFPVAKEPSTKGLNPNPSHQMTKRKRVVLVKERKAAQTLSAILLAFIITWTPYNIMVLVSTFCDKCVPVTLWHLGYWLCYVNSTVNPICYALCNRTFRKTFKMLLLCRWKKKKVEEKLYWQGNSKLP
Description: Displacement of [3H]-4-DAMP from human muscarinic M5 receptor expressed in BHK-21 cells

[6] = molecular target: T4, Muscarinic acetylcholine receptor M5 (Homo sapiens) (UniProt P08912); assay: Agonist activity at human muscarinic M5 receptor expressed in BHK-21 cells assessed as increase of acetylcholine-induced calcium flux by FLIPR assay relative to acetylcholine; type: functional, cell-based
T4 sequence (whole entry): T3 sequence (P08912 whole entry)

[7] = molecular target: T3, Muscarinic acetylcholine receptor M5; assay: Agonist activity at human muscarinic M5 receptor expressed in BHK-21 cells assessed as increase of acetylcholine-induced calcium flux by FLIPR assay; type: functional, cell-based
[8] = test system: Muscarinic acetylcholine receptor M1 (Homo sapiens), P11229 [Y381A]; assay: Agonist activity at human muscarinic M1 receptor Y381A mutant expressed in CHO-K1 cells assessed as increase of acetylcholine-induced calcium flux by FLIPR assay relative to acetylcholine; type: functional, cell-based
Sequence of Muscarinic acetylcholine receptor M1 (Homo sapiens), P11229 [Y381A] (P11229 whole entry Y381A): as the sequence (P11229 whole entry Y381A) above

[9] = molecular target: T5, Muscarinic acetylcholine receptor M2 (Homo sapiens) (UniProt P08172); assay: Agonist activity at human muscarinic M2 receptor expressed in CHO-K1 cells coexpressing Galpha16 subunit assessed as increase of acetylcholine-induced calcium flux at 10 uM by FLIPR assay relative to acetylcholine; type: functional, cell-based
T5 sequence (whole entry): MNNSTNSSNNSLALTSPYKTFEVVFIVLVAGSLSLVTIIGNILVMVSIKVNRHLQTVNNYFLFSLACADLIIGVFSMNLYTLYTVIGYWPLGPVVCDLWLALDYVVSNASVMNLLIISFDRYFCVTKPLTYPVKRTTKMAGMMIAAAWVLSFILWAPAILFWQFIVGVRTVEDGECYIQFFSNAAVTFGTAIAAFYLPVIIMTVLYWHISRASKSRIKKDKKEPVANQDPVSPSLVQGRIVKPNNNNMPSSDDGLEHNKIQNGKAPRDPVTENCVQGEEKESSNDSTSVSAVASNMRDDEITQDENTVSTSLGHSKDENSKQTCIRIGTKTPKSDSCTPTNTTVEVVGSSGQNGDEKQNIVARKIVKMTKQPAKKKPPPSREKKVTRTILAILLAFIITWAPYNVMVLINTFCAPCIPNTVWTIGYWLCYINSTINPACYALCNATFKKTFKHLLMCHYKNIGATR

[10] = molecular target: T6, Muscarinic acetylcholine receptor M2 (Homo sapiens, UniProt P08172); assay: Displacement of [3H]-AFDX-384 from human muscarinic M2 receptor expressed in CHO-K1 cells; type: cell-based
T6 sequence (P08172 whole entry): T5 sequence (whole entry)

[11] = molecular target: T7, Muscarinic acetylcholine receptor M4 (Homo sapiens) (UniProt P08173); assay: Agonist activity at human muscarinic M4 receptor expressed in BHK-21 cells coexpressing Galpha16 subunit assessed as increase of acetylcholine-induced calcium flux by FLIPR assay relative to acetylcholine; type: functional, cell-based
T7 sequence (whole entry): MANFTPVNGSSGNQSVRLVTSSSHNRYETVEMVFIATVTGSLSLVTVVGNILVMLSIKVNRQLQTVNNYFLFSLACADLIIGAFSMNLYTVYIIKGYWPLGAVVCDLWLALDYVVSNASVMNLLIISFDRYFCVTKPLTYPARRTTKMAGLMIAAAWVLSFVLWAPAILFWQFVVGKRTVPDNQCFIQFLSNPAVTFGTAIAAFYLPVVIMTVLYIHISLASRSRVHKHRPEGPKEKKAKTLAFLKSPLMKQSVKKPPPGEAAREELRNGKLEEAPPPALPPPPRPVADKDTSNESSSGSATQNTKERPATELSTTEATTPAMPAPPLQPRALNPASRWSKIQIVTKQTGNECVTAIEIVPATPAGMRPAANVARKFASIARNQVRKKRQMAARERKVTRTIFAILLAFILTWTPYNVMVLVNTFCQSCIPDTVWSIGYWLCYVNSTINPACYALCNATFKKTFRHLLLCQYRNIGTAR

[12] = molecular target: T8, Muscarinic acetylcholine receptor M3 (Homo sapiens, UniProt P20309); assay: Displacement of [3H]-4-DAMP from human muscarinic M3 receptor expressed in BHK-21 cells; type: cell-based
Target sequence in this assay (P20309 whole entry): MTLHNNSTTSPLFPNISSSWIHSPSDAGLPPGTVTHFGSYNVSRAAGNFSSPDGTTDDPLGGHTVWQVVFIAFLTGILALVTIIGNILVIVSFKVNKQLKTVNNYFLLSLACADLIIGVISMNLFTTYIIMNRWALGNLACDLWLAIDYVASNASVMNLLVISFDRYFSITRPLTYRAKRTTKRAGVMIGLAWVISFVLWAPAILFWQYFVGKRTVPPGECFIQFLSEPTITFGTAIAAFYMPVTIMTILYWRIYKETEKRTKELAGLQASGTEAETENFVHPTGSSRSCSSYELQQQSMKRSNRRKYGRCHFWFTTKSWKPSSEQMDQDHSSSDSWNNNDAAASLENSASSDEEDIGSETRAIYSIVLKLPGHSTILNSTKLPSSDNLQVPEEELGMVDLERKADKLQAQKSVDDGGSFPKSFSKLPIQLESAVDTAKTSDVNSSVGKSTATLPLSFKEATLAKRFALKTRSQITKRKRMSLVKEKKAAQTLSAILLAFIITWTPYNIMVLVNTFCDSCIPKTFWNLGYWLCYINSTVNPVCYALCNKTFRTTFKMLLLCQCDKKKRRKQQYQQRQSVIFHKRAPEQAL

[13] = molecular target: T8, Muscarinic acetylcholine receptor M3; assay: Agonist activity at human muscarinic M3 receptor expressed in BHK-21 cells assessed as increase of acetylcholine-induced calcium flux at 10 uM by FLIPR assay relative to acetylcholine; type: functional, cell-based
Target sequence in this assay (P20309 whole entry, looked up): as the sequence (P20309 whole entry) above

Row | Structure (SMILES) | Emax [1] [%] | EC50 [2] [µM] | also measured
1 | O=C(Cc1ccccc1)NC1CCN(CCCN2C(=O)CCc3ccccc32)CC1 | 89 | 0.048 | 
2 | O=C(NC1CCN(CCCN2C(=O)COc3ccccc32)CC1)C1CCCCC1 |  |  | Emax [3]: 3%
3 | CCC(=O)NC1CCN(CCCN2C(=O)CCc3ccc(F)cc32)CC1 | 83 | 0.02 | 
4 | CC(=O)NC1CCN(CCCN2C(=O)CCc3cc(F)c(F)cc32)CC1 | 76 | 0.086 | 
5 | COc1ccc2c(c1)CCC(=O)N2CCCN1CCC(NC(=O)Cc2ccccc2)CC1 | 84 | 0.56 | 
6 | O=C(Cc1ccccc1)NC1CCN(CCCN2C(=O)CCc3cccc(F)c32)CC1 | 75 | 0.29 | 
7 | O=C(Cc1ccccc1)NC1CCN(CCCn2c(=O)oc3ccccc32)CC1 | 70 | 1.1 | 
8 | CC(C)C(=O)NC1CCN(CCCN2C(=O)COc3ccccc32)CC1 | 72 | 0.046 | 
9 | CCC(=O)NC1CCN(CCCN2C(=O)CCc3cc(F)c(F)cc32)CC1 | 87 | 0.02 | 
10 | CN(C(=O)Cc1ccccc1)C1CCN(CCCN2C(=O)COc3ccccc32)CC1 | 67 | 0.91 | 
11 | O=C(NC1CCN(CCCN2C(=O)COc3ccccc32)CC1)C1CCCC1 | 41 | 0.35 | 
12 | COc1ccc2c(c1)N(CCCN1CCC(NC(=O)Cc3ccccc3)CC1)C(=O)CC2 | 83 | 0.12 | 
13 | CCC(=O)NC1CCN(CCCN2C(=O)COc3cc(F)c(F)cc32)CC1 | 88 | 0.01 | 
14 | Clc1ccc2c(c1)N=C(N1CCNCC1)c1ccccc1N2 [N-DESMETHYLCLOZAPINE] | 75 | 0.018 | EC50 [4]: 0.14 µM; Ki [5]: 0.051 µM; Emax [6]: 34%; EC50 [7]: 0.17 µM; Emax [8]: 72%; Emax [9]: 3%; Ki [10]: 0.25 µM; Emax [11]: 12%; Ki [12]: 0.09 µM; Emax [13]: 10%
15 | O=C(NC1CCN(CCCN2C(=O)COc3ccccc32)CC1)C1CCC1 | 37 | 0.16 | 
16 | O=C(NC1CCN(CCCN2C(=O)COc3ccccc32)CC1)C1CC1 | 74 | 0.11 | 
